This is an account of results in article PMC7503225, “Repositioning Dequalinium as Potent Muscarinic Allosteric Ligand by Combining Virtual Screening Campaigns and Experimental Binding Assays” (International Journal of Molecular Sciences, 2020).

Series [1] concerns the target T1, [3H]-NMS-occupied muscarinic hM1 subtype (Homo sapiens, UniProt P11229).
T1 sequence (P11229 1-460): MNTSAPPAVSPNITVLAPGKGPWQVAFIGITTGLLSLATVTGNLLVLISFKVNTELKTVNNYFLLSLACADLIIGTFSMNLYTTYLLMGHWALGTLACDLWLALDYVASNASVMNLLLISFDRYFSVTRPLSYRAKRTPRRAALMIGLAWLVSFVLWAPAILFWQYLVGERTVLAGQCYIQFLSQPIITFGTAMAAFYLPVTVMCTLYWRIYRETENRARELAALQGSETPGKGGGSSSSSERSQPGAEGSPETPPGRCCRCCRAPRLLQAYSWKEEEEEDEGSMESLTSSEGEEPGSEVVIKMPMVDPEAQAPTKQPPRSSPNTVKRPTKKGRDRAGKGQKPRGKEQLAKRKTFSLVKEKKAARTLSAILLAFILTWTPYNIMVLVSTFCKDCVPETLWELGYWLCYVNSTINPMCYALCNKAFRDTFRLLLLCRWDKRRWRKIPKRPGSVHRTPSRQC
Description: biochemical. The method, then:
(§1) All tested compounds were purchased from Merck KGaA (Darmstadt, Germany). The radioligand binding experiments were performed with membranes from Chinese Hamster Ovary (CHO) cells stably transfected with the five cloned human muscarinic receptor subtypes (hM1-5). Membrane fractions were prepared according to the protocol, which have been previously described; membranes were stored at −80 °C until use. Nonspecific binding was defined by the radioactivity bound in the presence of 10 µM atropine.
(§2) Off-rate assays were performed as described elsewhere to estimate the affinity of the ligands for the [^3H]-NMS-occupied receptor (log Kocc). Briefly, a high concentration of membranes (about 0.1 mg/mL) was incubated with a high concentration of [^3H]-NMS (2 nM) for 60 min at room temperature (mix membrane). Next, 100 µL aliquots were distributed into polypropylene tubes that were empty or in a final volume of 1 mL binding buffer with 1 µM atropine alone and in the presence of a range of concentrations of tested compound (1 nM–0.1 mM).
(§3) The effect on the radioligand dissociation of each tested ligand was determined at 0 min and at one time point, which was chosen to be ca 2.5 dissociation half-lives of [^3H]-NMS alone from each subtype receptors. Later (80 min for hM1, 20 min for hM2 and 70 min for hM5), the samples were filtered and counted as previously reported. Non specific binding was measured as previously reported.
(§4) All the results are expressed as means ± SEM obtained from 3-4 independent experiments each one performed in duplicate.

Series [2] addresses T2, [3H]-NMS-occupied muscarinic hM2 subtype (Homo sapiens, UniProt P08172).
T2 construct: expressed in transfected cells; host or cells: CHO cells, stably transfected; membrane fractions
T2 sequence (P08172 1-466): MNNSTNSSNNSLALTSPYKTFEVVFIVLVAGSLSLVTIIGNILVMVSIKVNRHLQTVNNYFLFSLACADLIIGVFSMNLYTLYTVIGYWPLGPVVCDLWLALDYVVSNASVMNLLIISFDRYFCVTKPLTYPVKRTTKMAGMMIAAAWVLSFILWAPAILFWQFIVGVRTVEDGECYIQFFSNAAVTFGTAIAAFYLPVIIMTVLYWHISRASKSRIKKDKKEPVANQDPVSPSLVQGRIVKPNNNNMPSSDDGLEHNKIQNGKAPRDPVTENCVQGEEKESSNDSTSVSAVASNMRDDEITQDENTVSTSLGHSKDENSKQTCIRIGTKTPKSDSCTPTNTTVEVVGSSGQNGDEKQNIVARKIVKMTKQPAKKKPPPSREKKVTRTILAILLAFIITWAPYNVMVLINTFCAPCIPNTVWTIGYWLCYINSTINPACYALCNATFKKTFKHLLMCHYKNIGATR
Description: One point kinetic (off-rate) assay of [3H]-NMS dissociation. The settings on record: for Kd: read-out: Log Kocc hM2 (converted). It counts as binding. The method, then: as §1, §2, §3, §4

Series [3] has as its target T3, hM3 muscarinic receptor (Homo sapiens, UniProt P20309).
T3 construct: expressed in transfected cells; host or cells: CHO cells, stably transfected; membrane fractions
Put plainly: Equilibrium inhibition binding with [3H]-NMS, CHO cell membranes. As to conditions: [3H]-NMS 0.2 nM, mean ± SEM of 3-4 experiments, read-out: pKi hM3 (converted). The method, then: as §1
(§5) Aliquots of membranes (25–70 µg/mL) were added and incubated for 2 h at room temperature, filtered through UniFilter GF/B plates (PerkinElmer Life and Analytical Science, Monza, Italy) using a FilterMate cell harvester (PerkinElmer Life and Analytical Science, Monza, Italy). The filters were washed several times with ice-cold MilliQ water. Then, the plates were counted in a β-counter (TopCount NXT microplate scintillation counter, PerkinElmer Life and Analytical Science, Monza, Italy).
(§6) Data points from radioligand inhibition binding curve were fitted to models using nonlinear regression equation to determine inhibitor potency (IC50) estimates, which were then converted to Ki values as appropriate.
as §4

Series [4] has as its target T4, hM1 muscarinic receptor (Homo sapiens, UniProt P11229).
T4 construct: expressed in transfected cells; host or cells: CHO cells, stably transfected; membrane fractions
T4 sequence (P11229 1-460): T1 sequence (P11229 1-460)
The series is described as above. The settings on record: [3H]-NMS 0.2 nM, mean ± SEM of 3-4 experiments, read-out: pKi hM1 (converted). The protocol: as §1, §5, §6, §4

The target in series [5] is T5, hM5 muscarinic receptor (Homo sapiens, UniProt P08912).
T5 construct: expressed in transfected cells; host or cells: CHO cells, stably transfected; membrane fractions
T5 sequence (P08912 1-532): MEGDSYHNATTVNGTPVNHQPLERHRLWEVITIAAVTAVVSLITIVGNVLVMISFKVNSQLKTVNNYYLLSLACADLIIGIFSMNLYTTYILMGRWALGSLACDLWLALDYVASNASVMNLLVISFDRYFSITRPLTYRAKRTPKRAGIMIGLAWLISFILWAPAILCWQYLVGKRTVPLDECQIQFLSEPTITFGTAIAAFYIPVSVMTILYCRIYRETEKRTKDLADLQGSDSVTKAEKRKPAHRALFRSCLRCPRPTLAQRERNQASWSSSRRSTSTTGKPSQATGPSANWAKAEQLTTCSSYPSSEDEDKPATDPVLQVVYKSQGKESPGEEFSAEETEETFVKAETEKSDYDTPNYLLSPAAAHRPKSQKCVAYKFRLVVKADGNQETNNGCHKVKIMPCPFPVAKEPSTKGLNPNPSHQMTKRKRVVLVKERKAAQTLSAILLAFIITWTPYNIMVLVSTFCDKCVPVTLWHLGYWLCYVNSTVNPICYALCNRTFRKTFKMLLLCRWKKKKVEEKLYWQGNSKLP
The series is described as above. The settings on record: [3H]-NMS 0.2 nM, CHO membranes, mean ± SEM of 3-4 experiments; read-out: pKi hM5 (converted). The protocol:
as §1, §5, §6, §4

Series [6] concerns the target T6, hM4 muscarinic receptor (Homo sapiens, UniProt P08173).
T6 construct: expressed in transfected cells; host or cells: CHO cells, stably transfected; membrane fractions
T6 sequence (P08173 1-479): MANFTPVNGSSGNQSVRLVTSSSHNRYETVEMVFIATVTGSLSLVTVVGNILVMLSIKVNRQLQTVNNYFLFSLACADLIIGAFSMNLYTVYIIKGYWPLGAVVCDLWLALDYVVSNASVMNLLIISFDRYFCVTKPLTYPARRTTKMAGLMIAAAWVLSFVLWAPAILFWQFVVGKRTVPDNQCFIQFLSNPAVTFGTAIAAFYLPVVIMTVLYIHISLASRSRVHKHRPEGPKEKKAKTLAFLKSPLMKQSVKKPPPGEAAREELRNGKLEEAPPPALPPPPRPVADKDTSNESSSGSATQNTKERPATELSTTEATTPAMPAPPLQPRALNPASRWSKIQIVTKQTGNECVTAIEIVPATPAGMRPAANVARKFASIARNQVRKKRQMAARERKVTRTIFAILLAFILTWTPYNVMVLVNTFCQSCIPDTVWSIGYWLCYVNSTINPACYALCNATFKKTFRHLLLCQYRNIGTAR
The description is as above. The settings on record: [3H]-NMS 0.2 nM, CHO membranes, mean ± SEM of 3-4 experiments; read-out: pKi hM4 (converted). The method, then: as §1, §5, §6, §4

Series [7] concerns the target T7, hM2 muscarinic receptor (Homo sapiens, UniProt P08172).
T7 construct: expressed in transfected cells; host or cells: CHO cells, stably transfected; membrane fractions
T7 sequence (P08172 1-466): T2 sequence (P08172 1-466)
Described as above. As to conditions: [3H]-NMS 0.2 nM, mean ± SEM of 3-4 experiments, read-out: pKi hM2 (converted). The method, then:
as §1, §5, §6, §4

Series [8] addresses T8, [3H]-NMS-occupied muscarinic hM5 subtype (Homo sapiens, UniProt P08912).
T8 construct: expressed in transfected cells; host or cells: CHO cells, stably transfected; membrane fractions
T8 sequence (P08912 1-532): T5 sequence (P08912 1-532)
Put plainly: One point kinetic (off-rate) assay of [3H]-NMS dissociation. It counts as binding. The settings on record: read-out: log Kocc hM5 (converted). The method, then:
as §1, §2, §3
Data from one-point kinetic experiments were analyzed in order to obtain estimates of the affinity of an allosteric ligand for the [^3H]-NMS occupied receptor (log Kocc) in a single step, using an equation introduced in GraphPad Prism 5.02 [33, 34].
as §4

The conditions of series [9]: ref DrugBank [16]; cited from earlier work.
Series [10] concerns the target five human muscarinic receptors subtypes (hM1–hM5). Description: Equilibrium binding, summary statements over the five subtypes. The protocol: as §1, §5, §6, §4

The structures appear in SMILES notation.

T3 sequence (P20309 whole entry): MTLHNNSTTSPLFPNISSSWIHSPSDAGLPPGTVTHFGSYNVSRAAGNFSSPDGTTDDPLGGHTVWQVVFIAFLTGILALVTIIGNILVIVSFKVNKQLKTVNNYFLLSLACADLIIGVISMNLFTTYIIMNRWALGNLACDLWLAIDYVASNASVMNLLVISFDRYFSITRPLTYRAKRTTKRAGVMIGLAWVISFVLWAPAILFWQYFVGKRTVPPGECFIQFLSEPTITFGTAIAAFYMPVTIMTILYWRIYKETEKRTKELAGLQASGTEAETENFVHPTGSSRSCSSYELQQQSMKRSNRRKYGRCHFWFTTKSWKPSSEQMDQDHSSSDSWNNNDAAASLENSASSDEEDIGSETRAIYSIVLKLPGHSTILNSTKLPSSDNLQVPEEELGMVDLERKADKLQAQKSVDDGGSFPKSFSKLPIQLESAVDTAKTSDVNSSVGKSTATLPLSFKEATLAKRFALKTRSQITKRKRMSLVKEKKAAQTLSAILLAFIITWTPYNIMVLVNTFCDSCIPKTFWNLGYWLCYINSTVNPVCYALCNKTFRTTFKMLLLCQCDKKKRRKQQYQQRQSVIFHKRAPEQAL

Turning to `C[N+](C)(CCCCCC[N+](C)(C)CCCN1C(=O)c2ccccc2C1=O)CCCN1C(=O)c2ccccc2C1=O` [W84], the Kd in series [1] is 1.62 µM; in series [2], 0.288 µM; in series [8], 18.2 µM. Also, the “selectivity ratio hM2/hM1” value in [2] (from log Kocc values) was found to be 4.6. In addition, the “selectivity ratio hM2/hM5” value in [2] (from log Kocc values) was 52.5. For the same molecule, the Ki is 5.5 µM in series [3]; 0.891 µM in series [4]; 9.12 µM in series [5]; 5.01 µM in series [6]; 6.17 µM in series [7].

With `COCCCOc1cc(C[C@@H](C[C@H](N)[C@@H](O)C[C@H](C(=O)NCC(C)(C)C(N)=O)C(C)C)C(C)C)ccc1OC` [aliskiren], the logP in series [9] is on record as 3.3. Further, in series [10], the “pKi values (muscarinic subtypes overall)” value is reported as “devoid of affinity for all muscarinic receptors”. For the same molecule, the Ki in series [5] and in [6] was over 100 µM each time.

Regarding `[H]/N=C(\N/C(=N/[H])NCCCCCCNC(=N)NC(=N)Nc1ccc(Cl)cc1)Nc1ccc(Cl)cc1` [chlorhexidine], the Kd in series [1] is 81.3 µM; in [8], 186 µM. Further, the “pKi values (muscarinic subtypes overall)” value in series [10] is recorded as “around 6”. The Ki in [3] is 2.14 µM; in series [4], 0.501 µM; in series [5] it was 2.24 µM; in series [6], 1.62 µM.

As for `N=C(N)c1ccc(/N=N/Nc2ccc(C(=N)N)cc2)cc1` [diminazene], in [2], the Kd is 155 µM. Further, the “pKi values (muscarinic subtypes overall)” value in [10] is on record as “around 5”. Moreover, the Ki is 4.79 µM in series [3]; 3.16 µM in [4]; 4.79 µM in series [5]; 8.91 µM in series [6]; 5.62 µM in series [7].

`N=C(N)c1ccc(OCCCCCOc2ccc(C(=N)N)cc2)cc1` [pentamidine]: the Ki is 1.74 µM in [5] and 1.32 µM in [6]. Also, the Kd in series [8] was 182 µM.
